pIC50, pKd: −log10 of the molar value.
Assays:
[1] = Cytotoxicity against African green monkey Vero E6 cells incubated for 24 hrs by CCK8 assay; format: toxicity, cell-based, Vero C1008; details: chlorocebus sabaeus
[2] = target: Replicase polyprotein 1ab (Severe acute respiratory syndrome coronavirus 2) (UniProt P0DTD1); details: dose 31.25-1000 nM, time 100.0 sec
[3] = target: Replicase polyprotein 1ab (Severe acute respiratory syndrome coronavirus 2) (UniProt P0DTD1); details: dose 31.25-1000 nM, time 100.0 sec; remark: listed apart in the source
[4] = target: T1, Calpain-1 catalytic subunit (Homo sapiens, UniProt P07384); assay: Inhibition of human Calpain 1 using N-Suc-Leu-Leu-Val-Tyr-7-AMC as substrate incubated for 10 mins by FRET-enzymatic assay
T1 sequence (P07384 whole entry): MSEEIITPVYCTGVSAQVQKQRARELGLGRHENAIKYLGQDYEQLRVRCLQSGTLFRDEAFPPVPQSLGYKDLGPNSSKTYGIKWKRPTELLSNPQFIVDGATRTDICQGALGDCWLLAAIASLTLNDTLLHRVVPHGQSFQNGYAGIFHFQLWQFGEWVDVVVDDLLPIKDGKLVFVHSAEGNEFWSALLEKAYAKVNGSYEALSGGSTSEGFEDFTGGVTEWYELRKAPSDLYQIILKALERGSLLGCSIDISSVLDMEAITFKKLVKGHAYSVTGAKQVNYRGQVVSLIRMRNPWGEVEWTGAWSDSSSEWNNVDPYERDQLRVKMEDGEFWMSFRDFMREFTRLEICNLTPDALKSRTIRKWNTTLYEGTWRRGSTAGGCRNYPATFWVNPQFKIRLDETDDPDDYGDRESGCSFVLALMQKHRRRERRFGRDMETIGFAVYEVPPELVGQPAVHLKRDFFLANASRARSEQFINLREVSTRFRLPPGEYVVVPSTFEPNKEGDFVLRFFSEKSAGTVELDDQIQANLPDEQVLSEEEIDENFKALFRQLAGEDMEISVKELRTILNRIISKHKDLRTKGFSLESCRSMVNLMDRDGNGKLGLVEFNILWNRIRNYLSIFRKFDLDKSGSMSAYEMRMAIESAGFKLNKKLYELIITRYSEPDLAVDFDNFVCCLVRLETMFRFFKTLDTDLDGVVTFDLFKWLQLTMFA

[5] = target: Cathepsin B (Homo sapiens, UniProt P07858); assay: Inhibition of human Cathepsin B using CBZ-Arg-Arg-AMC as substrate incubated for 10 mins by FRET-enzymatic assay
[6] = target: Cathepsin D (Homo sapiens, UniProt P07339); assay: Inhibition of human Cathepsin D using MCA-PLGL-Dap(Dnp)-AR-NH2 as substrate incubated for 10 mins by FRET-enzymatic assay
Cathepsin D, sequence (P07339 65-162 limits assumed): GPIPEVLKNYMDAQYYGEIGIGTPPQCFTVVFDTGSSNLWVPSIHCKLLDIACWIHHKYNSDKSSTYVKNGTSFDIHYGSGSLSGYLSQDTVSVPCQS
Cathepsin D, sequence (P07339 169-412 limits assumed): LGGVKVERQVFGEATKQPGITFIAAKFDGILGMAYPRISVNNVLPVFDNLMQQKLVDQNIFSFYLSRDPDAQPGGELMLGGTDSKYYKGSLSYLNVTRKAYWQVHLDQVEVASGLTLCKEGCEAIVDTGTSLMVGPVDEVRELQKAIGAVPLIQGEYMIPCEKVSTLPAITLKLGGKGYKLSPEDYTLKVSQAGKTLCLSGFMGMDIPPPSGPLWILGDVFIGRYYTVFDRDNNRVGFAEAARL

[7] = target: T2, Cathepsin K (Homo sapiens, UniProt P43235); assay: Inhibition of human Cathepsin K using Z-Phe-Arg-AMC as substrate incubated for 10 mins by FRET-enzymatic assay
T2 sequence (P43235 whole entry): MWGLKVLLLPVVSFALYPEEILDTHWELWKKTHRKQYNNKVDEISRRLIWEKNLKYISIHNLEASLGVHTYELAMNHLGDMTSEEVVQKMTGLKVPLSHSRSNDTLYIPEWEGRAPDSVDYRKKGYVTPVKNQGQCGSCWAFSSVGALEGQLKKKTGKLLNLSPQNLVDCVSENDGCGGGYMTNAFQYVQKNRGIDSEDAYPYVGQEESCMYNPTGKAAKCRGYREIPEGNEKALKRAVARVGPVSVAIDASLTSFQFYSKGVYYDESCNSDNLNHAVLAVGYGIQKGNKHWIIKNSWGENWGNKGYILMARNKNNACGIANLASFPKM

[8] = target: Procathepsin L (Homo sapiens, UniProt P07711); assay: Inhibition of human Cathepsin L using Z-Phe-Arg-AMC as substrate incubated for 10 mins by FRET-enzymatic assay
Procathepsin L, sequence (P07711 whole entry): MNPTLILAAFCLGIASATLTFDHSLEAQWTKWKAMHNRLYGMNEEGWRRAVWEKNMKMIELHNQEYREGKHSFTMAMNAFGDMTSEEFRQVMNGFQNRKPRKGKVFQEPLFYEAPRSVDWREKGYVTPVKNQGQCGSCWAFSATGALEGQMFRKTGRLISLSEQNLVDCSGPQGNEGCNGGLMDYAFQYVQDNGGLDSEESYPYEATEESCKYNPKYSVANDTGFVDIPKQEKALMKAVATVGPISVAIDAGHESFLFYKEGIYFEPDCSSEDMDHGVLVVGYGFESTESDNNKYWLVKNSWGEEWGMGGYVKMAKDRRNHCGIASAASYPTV

[9] = target: Trypsin (Homo sapiens, UniProt P07477+P07478+P35030); assay: Inhibition of human trypsin using CBZ-Arg-Arg-AMC as substrate incubated for 10 mins by FRET-enzymatic assay; format: protein assay
[10] = target: Prothrombin (Homo sapiens, UniProt P00734); assay: Inhibition of human thrombin using benzoyl-FVR-AMC as substrate incubated for 10 mins by FRET-enzymatic assay
[11] = test system: Proteasome; format: subcellular, Homo sapiens
[12] = target: Dipeptidyl peptidase 4 (Homo sapiens, UniProt P27487); assay: Inhibition of human DPP-4 using Gly-Pro-AMC as substrate incubated for 10 mins by FRET-enzymatic assay
Dipeptidyl peptidase 4, sequence (P27487 whole entry): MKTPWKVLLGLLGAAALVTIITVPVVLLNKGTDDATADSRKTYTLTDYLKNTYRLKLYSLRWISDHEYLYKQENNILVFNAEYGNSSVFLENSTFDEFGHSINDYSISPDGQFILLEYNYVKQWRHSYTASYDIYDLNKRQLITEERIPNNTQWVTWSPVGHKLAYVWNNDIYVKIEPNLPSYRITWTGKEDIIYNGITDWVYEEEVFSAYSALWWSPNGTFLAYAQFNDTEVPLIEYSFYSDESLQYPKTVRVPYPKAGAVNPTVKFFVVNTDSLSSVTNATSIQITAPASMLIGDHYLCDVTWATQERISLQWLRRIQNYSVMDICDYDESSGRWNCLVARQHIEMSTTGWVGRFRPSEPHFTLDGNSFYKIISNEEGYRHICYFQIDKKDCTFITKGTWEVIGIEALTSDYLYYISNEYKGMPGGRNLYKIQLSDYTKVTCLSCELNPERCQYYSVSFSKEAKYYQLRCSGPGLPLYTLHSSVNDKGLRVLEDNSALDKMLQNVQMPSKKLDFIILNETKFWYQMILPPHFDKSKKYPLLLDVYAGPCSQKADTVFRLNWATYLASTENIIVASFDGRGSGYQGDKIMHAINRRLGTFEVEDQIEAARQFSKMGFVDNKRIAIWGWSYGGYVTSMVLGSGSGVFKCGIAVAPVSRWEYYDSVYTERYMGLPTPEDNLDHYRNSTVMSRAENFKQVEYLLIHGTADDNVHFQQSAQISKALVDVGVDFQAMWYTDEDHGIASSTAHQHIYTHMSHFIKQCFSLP

[13] = target: T3, Caspase-3 (Homo sapiens, UniProt P42574); assay: Inhibition of human Caspase-3 activity using Ac-DEVD-pNA as substrate incubated for 5 mins by FRET-enzymatic assay
T3 sequence (P42574 whole entry): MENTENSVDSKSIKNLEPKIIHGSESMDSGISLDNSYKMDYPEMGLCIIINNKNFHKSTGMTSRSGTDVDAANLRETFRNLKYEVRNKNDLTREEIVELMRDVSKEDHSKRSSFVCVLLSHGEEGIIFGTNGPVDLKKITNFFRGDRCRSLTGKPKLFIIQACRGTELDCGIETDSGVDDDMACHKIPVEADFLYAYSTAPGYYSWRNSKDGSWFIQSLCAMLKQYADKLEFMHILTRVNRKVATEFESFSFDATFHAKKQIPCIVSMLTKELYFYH

[14] = Inhibition of Bat coronavirus WIV-1 3CLpro by FRET-enzymatic assay
[15] = Inhibition of MERS-CoV 3CLpro by FRET-enzymatic assay; parameters: species or system Middle East respiratory syndrome-related coronavirus
[16] = Inhibition of HCov-OC43 3CLpro by FRET-enzymatic assay; parameters: species or system Human coronavirus OC43
[17] = target: Replicase polyprotein 1ab (Human coronavirus 229E, UniProt P0C6X1); assay: Inhibition of HCov-229E 3CLpro by FRET-enzymatic assay
Replicase polyprotein 1ab (Human coronavirus 229E, UniProt P0C6X1), sequence (P0C6X1 2966-3267 limits assumed): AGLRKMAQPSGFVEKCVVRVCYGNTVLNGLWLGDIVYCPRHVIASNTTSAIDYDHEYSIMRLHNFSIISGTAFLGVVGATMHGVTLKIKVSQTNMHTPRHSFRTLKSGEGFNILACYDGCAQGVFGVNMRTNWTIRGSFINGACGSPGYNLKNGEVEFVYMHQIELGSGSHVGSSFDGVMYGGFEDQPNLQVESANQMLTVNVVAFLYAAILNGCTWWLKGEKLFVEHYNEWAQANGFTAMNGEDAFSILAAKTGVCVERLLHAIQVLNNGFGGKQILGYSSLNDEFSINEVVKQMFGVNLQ

[18] = Inhibition of Bat coronavirus HKU9 3CLpro by FRET-enzymatic assay; parameters: species or system Rousettus bat coronavirus HKU9
[19] = Inhibition of porcine delta coronavirus 3CLpro by FRET-enzymatic assay; parameters: species or system Porcine deltacoronavirus
[20] = target: 3C-like protease (Infectious bronchitis virus, UniProt Q3Y5H1); assay: Inhibition of Infectious bronchitis virus 3CLpro by FRET-enzymatic assay
3C-like protease, sequence (Q3Y5H1 whole entry): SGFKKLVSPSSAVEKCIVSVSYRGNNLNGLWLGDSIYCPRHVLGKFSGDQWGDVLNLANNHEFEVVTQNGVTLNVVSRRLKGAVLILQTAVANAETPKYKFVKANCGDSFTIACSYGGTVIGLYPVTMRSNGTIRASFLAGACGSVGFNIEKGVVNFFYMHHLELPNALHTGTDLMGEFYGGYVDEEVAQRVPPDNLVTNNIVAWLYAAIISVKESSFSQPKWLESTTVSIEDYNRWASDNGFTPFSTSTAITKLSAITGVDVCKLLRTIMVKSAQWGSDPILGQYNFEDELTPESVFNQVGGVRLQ

[21] = Inhibition of mouse hepatitis virus 3CLpro by FRET-enzymatic assay; parameters: species or system Murine hepatitis virus
[22] = Tmax in ICR mouse at 20 mg/kg, po; format: ADME, organism-based; details: in vivo
[23] = Half-life in ICR mouse at 20 mg/kg, po; format: ADME, organism-based; details: in vivo
[24] = Cmax in ICR mouse at 20 mg/kg, po; format: ADME, organism-based; details: in vivo
[25] = AUC (0 to infinity) in ICR mouse at 20 mg/kg, po; format: ADME, organism-based; details: in vivo
[26] = AUClast in ICR mouse at 20 mg/kg, po; format: ADME, organism-based; details: in vivo
[27] = Observed MRT (0 to infinity) in ICR mouse at 20 mg/kg, po; format: ADME, organism-based; details: in vivo
[28] = Acute toxicity in mouse at 500 mg/kg, po administered twice a day for 5 days; format: organism-based; details: in vivo, 120 h, time 5 day
[29] = Acute toxicity in mouse assessed as animal death at 500 mg/kg, po administered twice a day for 5 days; format: organism-based; details: in vivo, 120 h, time 5 day
[30] = Acute toxicity in mouse assessed as body weight change at 500 mg/kg, po administered twice a day for 5 days; format: organism-based; details: in vivo, 120 h, time 5 day
[31] = target: T4, Replicase polyprotein 1ab (Severe acute respiratory syndrome coronavirus 2, UniProt P0DTD1)
[32] = target: T4, Replicase polyprotein 1ab; remark: listed apart in the source

## CN1CCN(C(=O)c2cc(Br)cc([N+](=O)[O-])c2N[C@@H]2CCCC[C@@H]2NC(=O)c2cc(=O)[nH]c3c(F)cccc23)CC1
[1]
  CC50 at 24 h: > 200 µM
[2]
  K: 3.8 10^5/M/s
[3]
  K: 0.007 s⁻¹
[4]
  pIC50: < 4.00
[5]
  pIC50: < 4.00
[6]
  pIC50: < 4.00
[7]
  pIC50: < 4.00
[8]
  pIC50: < 4.00
[9]
  IC50: > 100 µM
[10]
  pIC50: < 4.00
[11]
  pIC50: < 4.00
[12]
  pIC50: < 4.00
[13]
  pIC50: < 4.00
[14]
  pIC50: 7.07
[15]
  pIC50: 5.77
[16]
  pIC50: 6.03
[17]
  pIC50: 5.59
[18]
  pIC50: 6.40
[19]
  pIC50: < 5.00
[20]
  pIC50: < 5.00
[21]
  pIC50: < 5.00
[22]
  Tmax: 3 min
[23]
  half-life: 1.21 h
[24]
  Cmax: 76.3 ng/mL
[25]
  AUC(0-inf): 77.7 ng·h/mL
[26]
  AUC(0-t): 70.6 ng·h/mL
[27]
  MRT inf: 1.44 h
[28]
  Activity: Non-Toxic
[29]
  Activity: Non-Toxic
[30]
  Activity: Non-Toxic
[31]
  pIC50: 7.68
[32]
  pKd: 7.74
